Reference: article PMC7827406, “Structure–Activity Relationship (SAR) Study of Spautin-1 to Entail the Discovery of Novel NEK4 Inhibitors” (International Journal of Molecular Sciences, 2021)
Where two headings read alike, the source gives them in different places.

Columns and labels:
Experiment in all cases: biochemical
Set-up in all cases: Eurofins KinaseProfiler full panel at Km ATP, residual kinase activity (%) relative to DMSO
BMPR2(h) = target: T1, BMPR2(h) (Homo sapiens, UniProt Q13873)
T1 sequence (Q13873 1-1038): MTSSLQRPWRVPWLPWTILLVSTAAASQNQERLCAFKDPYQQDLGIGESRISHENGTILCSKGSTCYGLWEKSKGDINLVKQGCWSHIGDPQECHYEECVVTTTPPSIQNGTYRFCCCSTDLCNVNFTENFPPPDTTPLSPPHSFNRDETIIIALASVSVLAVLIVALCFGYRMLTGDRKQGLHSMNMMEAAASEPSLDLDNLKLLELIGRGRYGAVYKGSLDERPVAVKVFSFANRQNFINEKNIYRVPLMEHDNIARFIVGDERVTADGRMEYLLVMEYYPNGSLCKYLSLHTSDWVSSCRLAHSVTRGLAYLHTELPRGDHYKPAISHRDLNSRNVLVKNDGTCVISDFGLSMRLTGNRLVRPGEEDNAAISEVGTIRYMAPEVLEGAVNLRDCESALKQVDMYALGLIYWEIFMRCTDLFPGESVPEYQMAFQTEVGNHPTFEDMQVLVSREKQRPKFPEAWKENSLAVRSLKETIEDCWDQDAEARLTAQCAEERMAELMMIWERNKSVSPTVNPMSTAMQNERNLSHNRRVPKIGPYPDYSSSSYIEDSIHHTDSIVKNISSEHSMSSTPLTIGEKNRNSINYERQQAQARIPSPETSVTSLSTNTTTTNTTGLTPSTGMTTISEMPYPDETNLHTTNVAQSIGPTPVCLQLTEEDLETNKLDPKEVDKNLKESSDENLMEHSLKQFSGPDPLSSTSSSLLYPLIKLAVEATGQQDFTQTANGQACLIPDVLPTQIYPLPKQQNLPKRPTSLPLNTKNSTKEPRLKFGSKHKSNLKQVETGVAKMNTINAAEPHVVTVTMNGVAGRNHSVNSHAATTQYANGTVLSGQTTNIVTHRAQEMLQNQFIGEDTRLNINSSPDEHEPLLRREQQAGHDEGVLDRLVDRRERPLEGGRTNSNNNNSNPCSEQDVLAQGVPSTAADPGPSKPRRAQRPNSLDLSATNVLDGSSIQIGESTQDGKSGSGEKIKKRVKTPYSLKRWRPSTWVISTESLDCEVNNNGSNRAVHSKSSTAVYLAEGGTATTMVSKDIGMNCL
Procedure, shortened: (§1)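 Radiometric kinase activity assays were run with ATP at Km and compounds at 10 µM, and remaining activity (%) was reported. A separate competitive binding screen measured DNA-tagged kinase displaced from immobilized active-site ligands by qPCR, giving percent kinase still bound at 10 µM compound in DMSO.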

CDKL4(h) = CDKL4(h) (Homo sapiens, UniProt Q5MAI5)
Procedure, shortened: as §1

SGK2(h) = target: T2, SGK2(h) (Homo sapiens, UniProt Q9HBY8)
T2 sequence (Q9HBY8 1-367): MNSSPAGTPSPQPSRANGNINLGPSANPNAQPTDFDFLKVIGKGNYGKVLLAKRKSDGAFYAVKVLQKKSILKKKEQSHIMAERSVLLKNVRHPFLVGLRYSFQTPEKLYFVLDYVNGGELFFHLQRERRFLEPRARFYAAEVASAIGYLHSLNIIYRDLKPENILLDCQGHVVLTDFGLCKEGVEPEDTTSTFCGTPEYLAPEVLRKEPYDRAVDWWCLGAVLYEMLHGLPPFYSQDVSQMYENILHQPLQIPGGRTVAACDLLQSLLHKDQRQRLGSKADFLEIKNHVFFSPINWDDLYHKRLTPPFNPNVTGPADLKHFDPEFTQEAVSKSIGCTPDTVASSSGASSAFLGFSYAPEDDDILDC
Procedure, shortened: as §1

CaMKK2(h) = CaMKK2(h) (Homo sapiens, UniProt Q96RR4)
Procedure, shortened: as §1

CaMKIV(h) = target: T3, CaMKIV(h) (Homo sapiens, UniProt Q16566)
T3 construct: gene CAMK4
T3 sequence (Q16566 1-473): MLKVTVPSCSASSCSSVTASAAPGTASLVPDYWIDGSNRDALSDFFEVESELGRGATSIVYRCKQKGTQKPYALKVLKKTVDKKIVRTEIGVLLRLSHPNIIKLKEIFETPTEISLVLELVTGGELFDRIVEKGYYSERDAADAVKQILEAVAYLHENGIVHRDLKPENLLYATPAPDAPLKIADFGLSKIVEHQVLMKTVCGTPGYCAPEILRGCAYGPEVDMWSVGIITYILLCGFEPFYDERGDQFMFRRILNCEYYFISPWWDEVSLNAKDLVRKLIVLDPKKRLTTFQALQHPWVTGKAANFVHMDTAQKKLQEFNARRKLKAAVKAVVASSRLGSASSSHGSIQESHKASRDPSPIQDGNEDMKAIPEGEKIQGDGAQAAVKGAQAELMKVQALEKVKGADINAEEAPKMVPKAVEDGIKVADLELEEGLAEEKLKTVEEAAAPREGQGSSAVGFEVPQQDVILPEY
Procedure, shortened: as §1

PKCγ(h) = target: T4, PKCγ(h) (Homo sapiens, UniProt P05129)
T4 construct: gene PRKCG
Procedure, shortened: as §1

[1] = target: T5, PI3 Kinase (p110a(H1047R)/p85a)(m) (Mus musculus, UniProt P42337, H1047R)
T5 construct: gene Pik3ca
Procedure, shortened: as §1

[2] = read-out: Residual activity (%) Spautin-1 5aa
[3] = read-out: Residual activity (%) 5as
[4] = read-out: Residual activity (%) 5at
[5] = read-out: Residual activity (%) 5ay

Sequence of CDKL4(h) (Q5MAI5 whole entry): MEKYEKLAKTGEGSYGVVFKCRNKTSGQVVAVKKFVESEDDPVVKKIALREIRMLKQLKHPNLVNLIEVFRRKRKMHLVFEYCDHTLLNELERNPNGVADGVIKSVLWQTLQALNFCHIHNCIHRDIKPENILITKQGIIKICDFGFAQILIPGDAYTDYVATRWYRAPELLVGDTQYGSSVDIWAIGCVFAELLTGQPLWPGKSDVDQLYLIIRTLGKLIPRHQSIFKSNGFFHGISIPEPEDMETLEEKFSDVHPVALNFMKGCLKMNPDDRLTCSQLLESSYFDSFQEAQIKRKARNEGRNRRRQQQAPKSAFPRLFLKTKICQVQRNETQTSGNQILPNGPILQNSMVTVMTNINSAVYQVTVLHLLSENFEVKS
T5 sequence (P42337 whole entry H1047R): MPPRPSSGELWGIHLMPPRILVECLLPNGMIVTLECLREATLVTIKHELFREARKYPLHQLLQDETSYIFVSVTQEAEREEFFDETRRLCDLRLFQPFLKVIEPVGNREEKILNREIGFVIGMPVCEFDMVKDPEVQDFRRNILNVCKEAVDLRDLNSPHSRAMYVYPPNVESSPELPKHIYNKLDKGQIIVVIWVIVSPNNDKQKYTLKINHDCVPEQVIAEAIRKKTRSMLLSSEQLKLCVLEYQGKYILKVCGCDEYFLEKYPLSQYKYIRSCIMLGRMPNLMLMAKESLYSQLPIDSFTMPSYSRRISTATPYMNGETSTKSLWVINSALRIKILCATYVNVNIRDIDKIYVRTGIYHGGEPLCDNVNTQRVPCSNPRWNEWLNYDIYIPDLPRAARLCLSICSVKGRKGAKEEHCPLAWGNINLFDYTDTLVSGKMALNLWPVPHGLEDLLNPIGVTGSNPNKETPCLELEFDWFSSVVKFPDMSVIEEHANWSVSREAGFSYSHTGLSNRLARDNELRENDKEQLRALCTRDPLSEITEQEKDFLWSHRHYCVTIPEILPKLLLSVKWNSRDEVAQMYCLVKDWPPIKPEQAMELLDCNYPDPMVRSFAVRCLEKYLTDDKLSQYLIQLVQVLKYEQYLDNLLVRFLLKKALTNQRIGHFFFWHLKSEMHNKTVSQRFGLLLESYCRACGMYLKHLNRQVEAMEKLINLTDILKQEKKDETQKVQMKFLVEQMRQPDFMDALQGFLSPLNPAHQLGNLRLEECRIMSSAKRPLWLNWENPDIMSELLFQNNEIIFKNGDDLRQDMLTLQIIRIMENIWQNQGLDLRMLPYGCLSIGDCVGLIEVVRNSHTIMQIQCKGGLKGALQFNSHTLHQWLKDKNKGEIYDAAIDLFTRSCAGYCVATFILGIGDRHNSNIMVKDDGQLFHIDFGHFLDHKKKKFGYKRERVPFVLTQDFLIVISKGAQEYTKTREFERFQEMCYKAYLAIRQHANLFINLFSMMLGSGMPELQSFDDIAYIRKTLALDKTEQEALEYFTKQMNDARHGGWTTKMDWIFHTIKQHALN
T5 sequence (P26450 whole entry partner): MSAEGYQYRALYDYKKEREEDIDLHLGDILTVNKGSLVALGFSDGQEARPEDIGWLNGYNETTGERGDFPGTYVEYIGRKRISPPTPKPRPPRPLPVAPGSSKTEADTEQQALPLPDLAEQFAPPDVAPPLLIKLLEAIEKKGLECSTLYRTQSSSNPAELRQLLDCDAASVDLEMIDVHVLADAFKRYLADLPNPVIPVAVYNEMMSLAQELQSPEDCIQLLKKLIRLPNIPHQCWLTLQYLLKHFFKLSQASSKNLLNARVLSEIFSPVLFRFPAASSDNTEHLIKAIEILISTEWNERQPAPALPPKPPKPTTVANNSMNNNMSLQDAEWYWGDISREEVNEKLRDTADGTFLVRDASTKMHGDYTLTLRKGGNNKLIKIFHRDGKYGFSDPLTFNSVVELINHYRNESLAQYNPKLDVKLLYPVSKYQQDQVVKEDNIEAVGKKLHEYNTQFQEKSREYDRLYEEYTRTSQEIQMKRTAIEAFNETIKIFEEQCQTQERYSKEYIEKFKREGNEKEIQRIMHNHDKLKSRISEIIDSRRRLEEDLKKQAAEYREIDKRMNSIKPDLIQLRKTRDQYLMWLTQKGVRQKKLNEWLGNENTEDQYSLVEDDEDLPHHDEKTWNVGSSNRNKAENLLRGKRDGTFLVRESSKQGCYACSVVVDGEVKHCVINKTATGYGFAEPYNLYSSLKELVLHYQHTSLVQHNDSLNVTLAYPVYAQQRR
Sequence of CaMKK2(h) (Q96RR4 whole entry): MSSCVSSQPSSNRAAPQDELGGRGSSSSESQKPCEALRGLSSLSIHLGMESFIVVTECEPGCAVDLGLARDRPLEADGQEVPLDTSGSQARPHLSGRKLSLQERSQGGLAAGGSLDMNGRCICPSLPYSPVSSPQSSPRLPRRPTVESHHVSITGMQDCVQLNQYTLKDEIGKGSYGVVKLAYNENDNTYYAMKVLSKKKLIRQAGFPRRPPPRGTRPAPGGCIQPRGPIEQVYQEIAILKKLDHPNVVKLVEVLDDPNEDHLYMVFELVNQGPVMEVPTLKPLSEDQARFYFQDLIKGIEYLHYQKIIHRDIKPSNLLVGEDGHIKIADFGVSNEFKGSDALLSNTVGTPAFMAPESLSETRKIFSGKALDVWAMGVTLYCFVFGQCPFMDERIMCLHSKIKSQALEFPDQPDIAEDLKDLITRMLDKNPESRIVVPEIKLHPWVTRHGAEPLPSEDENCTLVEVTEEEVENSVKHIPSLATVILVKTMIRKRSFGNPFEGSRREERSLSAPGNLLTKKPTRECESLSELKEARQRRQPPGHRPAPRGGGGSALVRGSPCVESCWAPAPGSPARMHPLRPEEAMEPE

`Fc1ccc(CNc2ncnc3ccc(F)cc23)cc1` [5aa, 6-Fluoro-N-(4-fluorobenzyl)-4-Quinazolinamine] showed a remaining activity at 10 µM (BMPR2(h); [2]) of 115%, a remaining activity at 10 µM (CDKL4(h); [2]) of 73% and a remaining activity at 10 µM (SGK2(h); [2]) of 108%. The remaining activity at 10 µM (CaMKK2(h); [2]) was 79%, the remaining activity at 10 µM (CaMKIV(h); [2]) was 81% and the remaining activity at 10 µM (PKCγ(h); [2]) was 86%. It also gave a remaining activity at 10 µM [1, 2] of 96%.

In the case of `Fc1ccc(CCNc2ncnc3ccc(F)cc23)cc1` [5as, 6-Fluoro-N-[2-(4-Fluorophenyl)Ethyl]-4-Quinazolinamine], the remaining activity at 10 µM (BMPR2(h); [3]) is reported as 108%, the remaining activity at 10 µM (CDKL4(h); [3]) is reported as 94% and the remaining activity at 10 µM (SGK2(h); [3]) is reported as 115%. It also gave a remaining activity at 10 µM (CaMKK2(h); [3]) of 87%, a remaining activity at 10 µM (CaMKIV(h); [3]) of 75% and a remaining activity at 10 µM (PKCγ(h); [3]) of 74%. For the same molecule, the remaining activity at 10 µM [1, 3] was 95%.

`Fc1ccc2ncnc(NCCc3ccc(Cl)cc3)c2c1` [5at, N-[2-(4-Chlorophenyl)Ethyl]-6-Fluoro-4-Quinazolinamine] showed a remaining activity at 10 µM (BMPR2(h); [4]) of 103%, a remaining activity at 10 µM (CDKL4(h); [4]) of 92% and a remaining activity at 10 µM (SGK2(h); [4]) of 89%. It also gave a remaining activity at 10 µM (CaMKK2(h); [4]) of 96%, a remaining activity at 10 µM (CaMKIV(h); [4]) of 81% and a remaining activity at 10 µM (PKCγ(h); [4]) of 72%. For the same molecule, the remaining activity at 10 µM [1, 4] was 94%.

`COc1ccc2ncnc(Nc3cccc(F)c3)c2c1` [5ay, N-(3-Fluorophenyl)-6-Methoxy-4-Quinazolinamine] was tested, and the remaining activity at 10 µM (BMPR2(h); [5]) was 99%, the remaining activity at 10 µM (CDKL4(h); [5]) was 38% and the remaining activity at 10 µM (SGK2(h); [5]) was 103%. It also gave a remaining activity at 10 µM (CaMKK2(h); [5]) of 78%, a remaining activity at 10 µM (CaMKIV(h); [5]) of 68% and a remaining activity at 10 µM (PKCγ(h); [5]) of 81%. For the same molecule, the remaining activity at 10 µM [1, 5] was 93%.
